Read-outs that look alike come from different tables or passages of the source.
How the values were obtained:
[1] = system: patients with multiple myeloma; settings: cited from earlier work
[2] = system: patients; settings: cited from earlier work
[3] = system: subjects with previously untreated multiple myeloma; test: Example 1 randomized open-label study, VMP vs MP: treatment-emergent peripheral neuropathy; settings: human, in vivo, 54 weeks
Description: A randomized, open-label, multicenter study was conducted, consisting of 3 Phases: a Pre-randomization (Screening) Phase, an Open-label Treatment Phase, and a Post-treatment Phase. Approximately 680 subjects with previously untreated multiple myeloma were randomly assigned to one of two treatment groups and were stratified according to baseline β2-microglobulin, baseline albumin levels and region (North America, Europe, other). Subjects received either VELCADE™/Melphalan/Prednisone (VMP) (Treatment Group A) or Melphalan/Prednisone (MP) (Treatment Group B). Subjects in Treatment Group A received VELCADE™ 1.3 mg/m^2 (twice weekly [Weeks 1, 2, 4, and 5] for four 6-week cycles [8 doses per cycle] followed by once weekly [Weeks 1, 2, 4, and 5] for five 6-week cycles [4 doses per cycle]) in combination with melphalan 9 mg/m^2 and prednisone 60 mg/m^2 (once daily on Days 1 to 4 of each 6-week cycle). Subjects in Treatment Group B received 9 cycles of melphalan 9 mg/m^2 and prednisone 60 mg/m^2 once daily on Days 1 to 4 of each 6-week cycle. For both groups, treatment continued for a maximum of 9 cycles (54 weeks) and subjects were discontinued if disease progression or an unacceptable treatment-related toxicity occurred, or if a subject withdrew consent.
Included in the analysis are the 368 subjects who met all of the following criteria: consented to DNA analysis; had usable genotype data for SNPs listed in Appendix 1; had Adverse Event related clinical data before treatment and after at least one cycle of VELCADE™ treatment (including those having neurological events and those completing treatment with no neurological event). These 368 subjects included: Treatment Group A (154 Caucasian, 2 black, 10 Asian); Treatment Group B (168 Caucasian, 4 black, 12 Asian), and 18 were not treated.
The primary adverse event endpoints are the treatment-emergent peripheral neuropathies caused by VELCADE™, including peripheral neuropathy NEC, peripheral sensory neuropathy, and neuralgia. For each specific peripheral neuropathy endpoint, the null hypothesis was that none of the successfully genotyped SNPs is associated with this specific treatment-emergent peripheral neuropathy. Each successfully genotyped SNP is tested to see whether there is a difference in the distribution of the genotypes of this SNP between patients with and without this specific VELCADE™ treatment-emergent peripheral neuropathy. The test result is subsequently adjusted by total number of successfully genotyped SNPs to correct multiplicity. […]

[4] = system: patients with newly diagnosed multiple myeloma; settings: human, in vivo, 4 cycles
Description: A randomized, open-label, multicenter study was conducted that compared vincristine/adriamycin/dexamethasone (VAD) and VELCADE™/Dexamethasone as induction treatment prior to autologous hematopoietic stem cell transplantation (AHSCT) in patients up to (and including) the age of 65 with newly diagnosed multiple myeloma. Approximately 480 patients were included in this study. Subjects were randomized at diagnosis into one of 4 induction treatment arms: • A1 VAD (4 cycles) • A2 VAD (4 cycles) followed by Dexamethasone/cyclophosphomide/etoposide/cis-Platinum (DCEP) (2 cycles) • B1 VELCADE+dexamethasone (4 cycles) • B2 VELCADE+dexamethasone (4 cycles) followed by DCEP (2 cycles)
Randomization was stratified based on the initial β2 microglobulin level (> or ≦3 mg/l) and the presence of chromosome 13 abnormalities identified by fluorescence in situ hybridization (FISH) analysis. After induction treatment (Arms A1 and B1) or after consolidation treatment (Arms A2 and B2) all of the patients underwent AHSCT.
470 samples were sent to Illumina for genotyping on 2016 SNPs in 172 non-mitochondria genes. Out of the 470 samples, 29 samples are Hapmap control subjects, 3 samples are controls subjects from a Belgium family, and another 4 are samples from Example 1 for quality control. Therefore, there were totally 434 unique subjects from this study (103 in A1, 105 in A2, 111 in B1, 111 in B2 and 4 not treated).
After the quality control and filtering, 212 VELCADE treated subjects were included in the association analysis on non-mtSNPs.
Based on the raw p-values for the association tests, none of the significant associations identified in Example 1 were replicated in Example 2. […] Patients with homogenous genotype of the minor allele of rs4553808 (GG) tend to have earlier onset of peripheral neuropathy than those that contain only 1 or 0 copy of the minor allele (AA/AG): median time to onset was 68 days vs. 70 days.
The association with time and cumulative dosage of VELCADE™ to the onset of different levels of peripheral neuropathy in all 1908 SNPs in Example 2 was tested. No significant associations was identified after multiple testing correction using Bonfferoni (0.05/1908=2.62E-05).

CC(C)C[C@H](NC(=O)[C@H](Cc1ccccc1)NC(=O)c1cnccn1)B(O)O [VELCADE, bortezomib]
patients with improvement or resolution of peripheral neuropathy ([1]; after dose discontinuation, patients discontinuing due to Grade 2 PN or who had >Grade 3 PN): 73% | patients with improvement or resolution of peripheral neuropathy ([1]; after dose reduction, patients with >Grade 2 PN): 51% | treatment cycle at which peripheral neuropathy reaches a plateau ([2]; in vivo): 5 cycle | mean rating of associated pain ([2]; scale of 0 for no pain and 10 for worst imaginable pain): 7.8 | onset of any peripheral neuropathy [3]: 72 events | onset of grade≧2 peripheral neuropathy [3]: 50 events | onset of grade≧3 peripheral neuropathy [3]: 21 events | onset rate of peripheral neuropathy event [3]: 51.8% | Neuralgia [4]: 9 cases | any one of the three adverse events (AE3) [4]: 51 cases | onset rate of peripheral neuropathy event [4]: 44.8% | peripheral neuropathy NEC [4]: 44 cases | peripheral sensory neuropathy [4]: 8 cases

— US9605317B2, “Biomarkers for assessing peripheral neuropathy response to cancer treatment” (Janssen Pharmaceutica NV, priority 2009, dated 2017)
